Assay results: US8772502B2, “Alkylsulfinyl-substituted thiazolide compounds” (Romark Laboratories, L.C., priority 2010, dated 2014)
“And” between values parts separate entries of the source, which are not always exact repeats. Equal entries are not always repeated. “Also recorded” adds a separate entry of the source. Where two headings read alike, the source gives them in different places.

How the values were obtained:
[1] = Secondary HCV replicon assay, genotype 1B, cytotoxicity (neutral red dye uptake); conditions: human
Description: (§1) Antiviral activity of test compounds was assessed in a 3-day assay using the stably-expressing HCV replicon cell line, AVA5 (sub-genomic CON1, genotype 1b) [Korba, B. E. et al. Antiviral Res. 77, 56-63 (2008); Blight et al., Science 290, 1972-1974 (2000)] maintained as sub-confluent cultures on 96-well plates as previously described [Okuse et al., Antiviral Research 65, 23-34 (2005)]. Antiviral activity was determined by blot hybridization analysis of intracellular HCV RNA (normalized to the level of cellular B-actin RNA in each culture sample) and cytotoxicity was assessed by neutral red dye uptake after 3 days of treatment. Additional studies were performed using Huh7 cells containing another HCV replicon, H/FL-Neo, a genotype 1a full length construct [Blight et al., J. Virol. 77, 3181-3190 (2003)]. For studies involving human serum, standard culture medium (which contains 10% fetal bovine serum) and assay conditions were maintained.
(§2) EC50, EC90 and CC50 values (±standard deviations [S.D.]) were calculated by linear regression analysis using data combined from all treated cultures (Korba, B. E. et al. Antiviral Res. 77, 56-63 (2008)). […] Selectivity index (S.I.) was calculated as CC50/EC90 for HBV assays and CC50/EC50 for HCV assays.

[2] = tested on: HCV replicon cell line, AVA5 (sub-genomic CON1, genotype 1b); experiment: Secondary HCV replicon assay, genotype 1B, antiviral activity; format: cell-based
Description: as §1, §2

Huh 7.5 cells = experiment: Cytotoxicity in the infectious genotype 2a cell culture assay; format: cell-based
Description: (§3) Genotype 2a antiviral assays were conducted as previously described [Lindenbach, B. D.; Rice, C. M. et al. Science, 309, 623-626 (2005)]. […] Cell viability was determined using the Calcein assay kit (Biotium, Inc. Hayward, Calif., USA). The alternate method for measuring cell cytotoxicity was via the Guava Technologies ViaCount assay (Millipore) The ViaCount Assay provides rapid and reliable determinations of viability and total cell count. It distinguishes viable and non-viable cells based on differential permeabilities of two DNA-binding dyes in the Guava ViaCount® Reagent. The nuclear dye stains only nucleated cells, while the viability dye brightly stains dying cells. This combination of dyes enables the Guava ViaCount Assay to distinguish viable, apoptotic, and dead cells. Debris is excluded from results based on negative staining with the nuclear dye.

J6/JFH-1 HCV = experiment: Infectious genotype 2a cell culture assay (HCV replication by RT-PCR); format: cell-based; conditions: for efficacy with regards to HCV replication: Huh7.5/JFH-1 HCV cell culture system; for inhibition of J6/JFH-1 HCV replication: 1 μM test concentration
Description: as §3
HCV replication levels were determined by RT-PCR on RNA from cell culture supernatants. J6-infected Huh 7.5 cells were seeded in 12-well plates at a density of 2.0E^5 cells/well in 1.5 mL of DMEM supplemented with 10% FBS and 1% Pen/Strep. […] A positive control of IFN-α at concentrations of 10 IU/mL and 50 IU/mL, negative control wells containing mock incubations of DMEM with 1 uL and 10 uL (the same volume of the molecular compounds at 1 uM and 10 uM, respectively) of DMSO was included to rule out nonspecific effects of DMSO on the cells, and J6-infected with only DMEM were used as negative controls. A final control group consisted of un-infected Huh 7.5 cells, plated at the same time and density as the J6-infected cells on a separate plate. 48 hours and 120 hours after incubation with thiazolides, the media was collected and frozen, cells were washed 2× with PBS, and lysed in 500 uL of lysis buffer per well. Following lysis, RNA was extracted from the cells using the RNAqueous-4PCR Kit from Ambion, and the RNA concentration determined using the NanoDrop® machine. Reverse-transcription reactions produced 1.5 μg of cDNA per sample, which was then used for rt-PCR to quantify the HCV viral load in each sample. Analysis of the rt-PCR results generated the fold increases and decreases of the HCV viral load in comparison to untreated J6 cells.

[3] = Secondary HCV replicon assay, genotype 1A, cytotoxicity (neutral red dye uptake); conditions: human
Description: as §1, §2

[4] = tested on: HCV replicon cell line, AVA5; experiment: Primary HCV replicon assay, cytotoxicity (neutral red dye uptake); conditions: primary assay; neutral red dye uptake after 3 days
Description: as §1, §2

[5] = tested on: HCV replicon cell line, AVA5 (sub-genomic CON1, genotype 1b); experiment: Primary HCV replicon assay, antiviral activity (intracellular HCV RNA); format: cell-based
Description: as §1, §2

[6] = tested on: HCV replicon, H/FL-Neo, a genotype 1a full length construct; experiment: Secondary HCV replicon assay, genotype 1A, antiviral activity; format: cell-based
Description: as §1, §2

[7] = tested on: HCV replicon cell line, AVA5; experiment: Secondary HCV replicon assay, genotype 1B, cytotoxicity (neutral red dye uptake); conditions: secondary assay, genotype 1B; neutral red dye uptake
Description: as §1, §2

[8] = tested on: Huh7 cells containing HCV replicon H/FL-Neo; experiment: Secondary HCV replicon assay, genotype 1A, cytotoxicity (neutral red dye uptake); conditions: secondary assay, genotype 1A; neutral red dye uptake
Description: as §1, §2

[9] = cited from earlier work
[10] = Primary HCV replicon assay, cytotoxicity (neutral red dye uptake); conditions: human
Description: as §1, §2

cytochrome P450 enzymes = conditions: cited from earlier work
cellular esterases = experiment: Metabolic stability of acetate prodrugs under the cell assay conditions; format: in vitro ADME
[11] = Hepatitis C virus, Ava5, primary assay, 2-fold depression of intracellular HCV RNA, read-out: EC50
[12] = Hepatitis C virus, Ava5, primary assay, 10-fold depression of intracellular HCV RNA, read-out: EC90
[13] = primary assay, 2-fold depression of intracellular HCV RNA, read-out: EC50
[14] = primary assay, 10-fold depression of intracellular HCV RNA, read-out: EC90

Structure (SMILES): C[S+]([O-])c1csc(NC(=O)c2ccccc2O)n1 (stereo not drawn) [Compound 2, 2-hydroxy-N-(4-(methylsulfinyl)thiazol-2-yl)benzamide]
- CC50 at 3 days [1]: > 100 µM
- EC50 ([2]; Hepatitis C virus, Ava5): 2.2 µM
- EC90 ([2]; Hepatitis C virus, Ava5): 6.1 µM
- cytotoxic effect in Huh 7.5 cells (Huh 7.5 cells): Neither of these compounds showed a cytotoxic effect
- cytotoxic effect in Huh 7.5 cells (Huh 7.5 cells; listed as analog 2): without being cytotoxic
- efficacy with regards to HCV replication (J6/JFH-1 HCV): demonstrated efficacy
- inhibition of J6/JFH-1 HCV replication (J6/JFH-1 HCV; genotype G2a): shown to inhibit J6/JFH-1HCV replication
- relative potency, % of NTZ (J6/JFH-1 HCV; genotype G2a, at 0.1 μM): 88 % of NTZ
- relative activity, % of NTZ (J6/JFH-1 HCV; genotype G2a, at 1 μM): 95 % of NTZ
- CC50 at 3 days [3]: > 100 µM
- CC50 [4]: 63 µM
- EC50 [5, 11]: 2 µM
- EC90 [5, 12]: 4.6 µM
- EC50 ([6]; Hepatitis C virus): 2.8 µM
- EC90 ([6]; Hepatitis C virus): > 5 µM

Structure (SMILES): CC(=O)Oc1ccccc1C(=O)Nc1ncc([N+](=O)[O-])s1 [NTZ, Nitazoxanide]
- CC50 [7]: 35 µM
- EC50 ([2]; Hepatitis C virus, Ava5): 0.25 µM
- EC90 ([2]; Hepatitis C virus, Ava5): 0.95 µM
- cytotoxic effect in Huh 7.5 cells (Huh 7.5 cells): without being cytotoxic; also recorded: Neither of these compounds showed a cytotoxic effect
- efficacy with regards to HCV replication (J6/JFH-1 HCV): demonstrated efficacy
- inhibition of J6/JFH-1 HCV replication (J6/JFH-1 HCV; genotype G2a): shown to inhibit J6/JFH-1HCV replication
- CC50 [8]: 49 µM
- detection in plasma ([9]; after oral 500 mg NTZ tablet): not detected
- CC50 [4]: 31 µM
- EC50 [5, 11]: 0.21 µM
- EC90 [5, 12]: 0.98 µM
- EC50 ([6]; Hepatitis C virus): 0.33 µM
- EC90 ([6]; Hepatitis C virus): 1.1 µM

Structure (SMILES): CC(=O)Oc1ccccc1C(=O)Nc1nc([S+](C)[O-])cs1 (stereo not drawn) [Compound 1, 2-(4-(methylsulfinyl)thiazol-2-ylcarbamoyl)phenyl acetate]
- CC50 at 3 days [10]: > 100 µM
- EC50 ([5]; Hepatitis C virus, Ava5): > 10 µM
- EC90 ([5]; Hepatitis C virus, Ava5): > 10 µM

Structure (SMILES): CS(=O)(=O)c1cnc(NC(=O)c2ccccc2O)s1 [RM4863]
- CC50 [7]: > 10 µM
- EC50 [2]: 0.9 µM
- EC90 [2]: 8.8 µM
- CC50 [8]: > 10 µM
- CC50 [4]: 43 µM
- EC50 [5, 13]: 1.5 µM
- EC90 [5, 14]: 5.2 µM
- EC50 [6]: 0.8 µM
- EC90 [6]: 3.4 µM

Structure (SMILES): O=C(Nc1ncc([N+](=O)[O-])s1)c1ccccc1O [TIZ, Tizoxanide]
- CC50 [7]: 28 µM
- EC50 ([2]; Hepatitis C virus, Ava5): 0.19 µM
- EC90 ([2]; Hepatitis C virus, Ava5): 0.92 µM
- CC50 [8]: 27 µM
- part of an oral dose excreted in feces as TIZ ([9]; oral dose of NTZ, feces): Approximately two-thirds
- Maximum serum concentrations of TIZ ([9]; oral, one 500 mg NTZ tablet (Alinia) with food): approximately 10 μg/mL and ~37 μM
- elimination half-life of TIZ from plasma ([9]; plasma): approximately 1.5 hours
- CC50 [4]: 15 µM
- inhibition of cytochrome P450 enzymes (cytochrome P450 enzymes): does not inhibit
- EC50 [5, 11]: 0.15 µM
- EC90 [5, 12]: 0.81 µM
- EC50 ([6]; Hepatitis C virus): 0.23 µM
- EC90 ([6]; Hepatitis C virus): 1 µM

Structure (SMILES): CC(=O)Oc1ccccc1C(=O)Nc1ncc(S(C)(=O)=O)s1 [RM4864]
- CC50 [4]: 20 µM
- EC50 [5, 13]: > 10 µM
- EC90 [5, 14]: > 10 µM
- metabolic stability (hydrolysis to the parent phenolic drug) (cellular esterases): metabolically stable
